Assays:
[1] = target: Prostaglandin G/H synthase 1 (Homo sapiens, UniProt P23219); assay type: functional
[2] = target: T1, Muscarinic acetylcholine receptor M2 (Homo sapiens, UniProt P08172)
T1 sequence (P08172 whole entry): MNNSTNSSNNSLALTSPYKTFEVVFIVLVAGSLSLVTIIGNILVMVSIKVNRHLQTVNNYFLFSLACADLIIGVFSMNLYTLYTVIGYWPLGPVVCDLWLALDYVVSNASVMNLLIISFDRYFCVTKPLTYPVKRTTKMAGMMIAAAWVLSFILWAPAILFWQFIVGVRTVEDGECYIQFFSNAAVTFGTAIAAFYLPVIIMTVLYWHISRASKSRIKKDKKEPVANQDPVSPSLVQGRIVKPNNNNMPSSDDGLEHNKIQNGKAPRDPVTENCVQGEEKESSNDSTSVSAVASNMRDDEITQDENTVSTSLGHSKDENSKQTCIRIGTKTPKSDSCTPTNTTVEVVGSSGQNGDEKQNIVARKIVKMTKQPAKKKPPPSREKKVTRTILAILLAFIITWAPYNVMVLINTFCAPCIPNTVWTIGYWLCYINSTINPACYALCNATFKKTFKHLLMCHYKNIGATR

[3] = target: cGMP-inhibited 3',5'-cyclic phosphodiesterase 3A (Homo sapiens, UniProt Q14432); assay type: functional
[4] = target: Voltage-gated inwardly rectifying potassium channel KCNH2 (Homo sapiens, UniProt Q12809); assay type: functional; conditions: read-out: AC50
[5] = target: T2, Amine oxidase [flavin-containing] A (Homo sapiens, UniProt P21397); assay type: functional
T2 sequence (P21397 whole entry): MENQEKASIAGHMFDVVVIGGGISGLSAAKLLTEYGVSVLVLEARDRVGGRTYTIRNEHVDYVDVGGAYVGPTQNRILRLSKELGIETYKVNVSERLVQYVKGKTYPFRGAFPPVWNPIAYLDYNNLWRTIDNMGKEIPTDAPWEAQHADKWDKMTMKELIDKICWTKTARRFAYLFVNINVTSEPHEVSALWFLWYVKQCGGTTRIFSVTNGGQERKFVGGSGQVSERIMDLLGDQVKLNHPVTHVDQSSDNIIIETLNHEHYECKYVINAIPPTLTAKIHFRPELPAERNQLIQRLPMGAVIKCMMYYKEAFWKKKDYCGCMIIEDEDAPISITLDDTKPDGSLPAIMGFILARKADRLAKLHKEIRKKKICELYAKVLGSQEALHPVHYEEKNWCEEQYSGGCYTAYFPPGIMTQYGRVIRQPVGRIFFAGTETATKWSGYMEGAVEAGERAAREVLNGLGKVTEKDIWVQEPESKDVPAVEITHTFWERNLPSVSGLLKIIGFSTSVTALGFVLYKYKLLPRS

[6] = target: D(1A) dopamine receptor (Homo sapiens, UniProt P21728)
[7] = target: D(3) dopamine receptor (Homo sapiens, UniProt P35462)
[8] = target: Prothrombin (Homo sapiens, UniProt P00734); assay type: functional
[9] = target: Sodium-dependent noradrenaline transporter (Homo sapiens, UniProt P23975)
[10] = target: Acetylcholinesterase (Homo sapiens, UniProt P22303); assay type: functional
[11] = target: T3, 5-hydroxytryptamine receptor 1A (Homo sapiens, UniProt P08908)
T3 sequence (P08908 whole entry): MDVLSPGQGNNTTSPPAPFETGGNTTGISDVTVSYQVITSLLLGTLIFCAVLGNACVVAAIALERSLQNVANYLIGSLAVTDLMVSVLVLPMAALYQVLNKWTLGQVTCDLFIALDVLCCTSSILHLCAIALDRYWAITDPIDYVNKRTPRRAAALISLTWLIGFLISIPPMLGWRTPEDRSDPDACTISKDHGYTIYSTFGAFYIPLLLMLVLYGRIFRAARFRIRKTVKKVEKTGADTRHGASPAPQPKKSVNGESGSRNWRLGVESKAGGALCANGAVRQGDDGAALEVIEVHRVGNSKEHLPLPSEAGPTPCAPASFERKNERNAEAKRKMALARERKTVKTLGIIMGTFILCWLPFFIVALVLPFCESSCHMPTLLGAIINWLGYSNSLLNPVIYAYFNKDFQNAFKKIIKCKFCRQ

[12] = target: 5-hydroxytryptamine receptor 2B (Homo sapiens, UniProt P41595); assay type: functional, cell-based
[13] = target: 3',5'-cyclic-AMP phosphodiesterase 4A (Homo sapiens, UniProt P27815); assay type: functional
[14] = target: T4, Thromboxane A2 receptor (Homo sapiens, UniProt P21731); assay type: functional, cell-based
T4 sequence (P21731 whole entry): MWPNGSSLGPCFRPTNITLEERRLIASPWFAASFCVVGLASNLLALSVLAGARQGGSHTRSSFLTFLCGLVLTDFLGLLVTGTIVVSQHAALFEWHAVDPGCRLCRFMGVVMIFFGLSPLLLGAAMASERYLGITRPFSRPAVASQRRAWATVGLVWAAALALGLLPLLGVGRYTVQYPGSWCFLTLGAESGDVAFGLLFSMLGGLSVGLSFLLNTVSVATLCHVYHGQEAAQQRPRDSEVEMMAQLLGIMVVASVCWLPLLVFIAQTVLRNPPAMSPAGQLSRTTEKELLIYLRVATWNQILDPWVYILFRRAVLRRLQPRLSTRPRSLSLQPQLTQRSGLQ

[15] = target: Bile salt export pump (Homo sapiens, UniProt O95342); assay type: functional
[16] = target: Histamine H3 receptor (Homo sapiens, UniProt Q9Y5N1)
[17] = target: Sodium-dependent dopamine transporter (Homo sapiens, UniProt Q01959)
[18] = target: Mu-type opioid receptor (Homo sapiens, UniProt P35372)
Note: assay procedure not described here.

Chain of D(3) dopamine receptor (P35462 whole entry): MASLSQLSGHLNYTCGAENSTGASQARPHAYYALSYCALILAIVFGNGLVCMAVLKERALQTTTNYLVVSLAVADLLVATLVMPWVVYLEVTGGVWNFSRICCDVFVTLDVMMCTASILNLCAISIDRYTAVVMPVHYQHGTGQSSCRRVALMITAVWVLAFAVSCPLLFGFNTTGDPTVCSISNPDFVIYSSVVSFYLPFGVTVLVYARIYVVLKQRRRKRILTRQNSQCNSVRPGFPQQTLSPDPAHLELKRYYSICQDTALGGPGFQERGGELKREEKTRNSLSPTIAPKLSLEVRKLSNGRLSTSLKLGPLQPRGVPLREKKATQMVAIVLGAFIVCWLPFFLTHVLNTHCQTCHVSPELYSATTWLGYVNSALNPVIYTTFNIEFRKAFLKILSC
Chain of 5-hydroxytryptamine receptor 2B (P41595 whole entry): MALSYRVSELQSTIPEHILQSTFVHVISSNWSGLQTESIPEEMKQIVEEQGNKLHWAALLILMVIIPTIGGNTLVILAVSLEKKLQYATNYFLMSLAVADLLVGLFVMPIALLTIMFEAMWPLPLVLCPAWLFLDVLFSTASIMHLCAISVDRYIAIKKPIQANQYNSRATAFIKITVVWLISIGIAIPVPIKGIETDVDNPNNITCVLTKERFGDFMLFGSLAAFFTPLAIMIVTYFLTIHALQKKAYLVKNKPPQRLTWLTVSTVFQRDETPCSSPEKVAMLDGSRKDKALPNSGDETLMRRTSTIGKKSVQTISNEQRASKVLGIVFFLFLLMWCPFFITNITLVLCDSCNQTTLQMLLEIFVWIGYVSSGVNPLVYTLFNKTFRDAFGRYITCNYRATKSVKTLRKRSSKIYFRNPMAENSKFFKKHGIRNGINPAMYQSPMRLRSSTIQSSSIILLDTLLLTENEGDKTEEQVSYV
Chain of Bile salt export pump (O95342 whole entry): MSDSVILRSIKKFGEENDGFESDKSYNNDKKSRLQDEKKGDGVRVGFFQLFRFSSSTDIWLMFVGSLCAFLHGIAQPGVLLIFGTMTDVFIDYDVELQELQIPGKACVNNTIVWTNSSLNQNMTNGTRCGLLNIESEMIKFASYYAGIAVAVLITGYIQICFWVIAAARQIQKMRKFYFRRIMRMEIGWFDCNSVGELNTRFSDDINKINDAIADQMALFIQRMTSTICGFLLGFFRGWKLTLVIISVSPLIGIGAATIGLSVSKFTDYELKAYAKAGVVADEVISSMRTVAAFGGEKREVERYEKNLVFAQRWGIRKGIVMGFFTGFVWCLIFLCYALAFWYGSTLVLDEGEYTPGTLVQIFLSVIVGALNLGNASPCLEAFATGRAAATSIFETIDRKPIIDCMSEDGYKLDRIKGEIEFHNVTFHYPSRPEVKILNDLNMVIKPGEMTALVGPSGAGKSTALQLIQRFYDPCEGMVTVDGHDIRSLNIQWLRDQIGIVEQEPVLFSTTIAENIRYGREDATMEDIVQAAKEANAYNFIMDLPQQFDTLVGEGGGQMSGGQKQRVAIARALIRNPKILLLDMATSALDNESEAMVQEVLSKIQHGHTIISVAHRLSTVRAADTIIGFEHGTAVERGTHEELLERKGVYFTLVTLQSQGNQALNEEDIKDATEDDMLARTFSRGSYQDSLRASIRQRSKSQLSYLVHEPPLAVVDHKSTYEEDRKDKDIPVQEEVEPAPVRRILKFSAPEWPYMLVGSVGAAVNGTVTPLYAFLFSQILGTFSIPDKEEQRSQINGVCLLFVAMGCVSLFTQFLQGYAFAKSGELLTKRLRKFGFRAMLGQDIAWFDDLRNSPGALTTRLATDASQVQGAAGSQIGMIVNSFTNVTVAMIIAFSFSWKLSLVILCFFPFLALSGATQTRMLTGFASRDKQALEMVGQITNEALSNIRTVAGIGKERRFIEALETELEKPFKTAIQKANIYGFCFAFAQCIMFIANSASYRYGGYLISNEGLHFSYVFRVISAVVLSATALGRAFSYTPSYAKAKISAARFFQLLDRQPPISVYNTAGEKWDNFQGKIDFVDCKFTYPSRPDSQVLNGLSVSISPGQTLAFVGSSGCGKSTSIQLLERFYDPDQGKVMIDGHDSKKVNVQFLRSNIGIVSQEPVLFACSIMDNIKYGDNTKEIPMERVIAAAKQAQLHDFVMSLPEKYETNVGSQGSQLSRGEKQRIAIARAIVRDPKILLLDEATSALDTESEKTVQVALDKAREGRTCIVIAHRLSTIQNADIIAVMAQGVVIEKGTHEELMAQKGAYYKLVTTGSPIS
Chain of cGMP-inhibited 3',5'-cyclic phosphodiesterase 3A (Q14432 whole entry): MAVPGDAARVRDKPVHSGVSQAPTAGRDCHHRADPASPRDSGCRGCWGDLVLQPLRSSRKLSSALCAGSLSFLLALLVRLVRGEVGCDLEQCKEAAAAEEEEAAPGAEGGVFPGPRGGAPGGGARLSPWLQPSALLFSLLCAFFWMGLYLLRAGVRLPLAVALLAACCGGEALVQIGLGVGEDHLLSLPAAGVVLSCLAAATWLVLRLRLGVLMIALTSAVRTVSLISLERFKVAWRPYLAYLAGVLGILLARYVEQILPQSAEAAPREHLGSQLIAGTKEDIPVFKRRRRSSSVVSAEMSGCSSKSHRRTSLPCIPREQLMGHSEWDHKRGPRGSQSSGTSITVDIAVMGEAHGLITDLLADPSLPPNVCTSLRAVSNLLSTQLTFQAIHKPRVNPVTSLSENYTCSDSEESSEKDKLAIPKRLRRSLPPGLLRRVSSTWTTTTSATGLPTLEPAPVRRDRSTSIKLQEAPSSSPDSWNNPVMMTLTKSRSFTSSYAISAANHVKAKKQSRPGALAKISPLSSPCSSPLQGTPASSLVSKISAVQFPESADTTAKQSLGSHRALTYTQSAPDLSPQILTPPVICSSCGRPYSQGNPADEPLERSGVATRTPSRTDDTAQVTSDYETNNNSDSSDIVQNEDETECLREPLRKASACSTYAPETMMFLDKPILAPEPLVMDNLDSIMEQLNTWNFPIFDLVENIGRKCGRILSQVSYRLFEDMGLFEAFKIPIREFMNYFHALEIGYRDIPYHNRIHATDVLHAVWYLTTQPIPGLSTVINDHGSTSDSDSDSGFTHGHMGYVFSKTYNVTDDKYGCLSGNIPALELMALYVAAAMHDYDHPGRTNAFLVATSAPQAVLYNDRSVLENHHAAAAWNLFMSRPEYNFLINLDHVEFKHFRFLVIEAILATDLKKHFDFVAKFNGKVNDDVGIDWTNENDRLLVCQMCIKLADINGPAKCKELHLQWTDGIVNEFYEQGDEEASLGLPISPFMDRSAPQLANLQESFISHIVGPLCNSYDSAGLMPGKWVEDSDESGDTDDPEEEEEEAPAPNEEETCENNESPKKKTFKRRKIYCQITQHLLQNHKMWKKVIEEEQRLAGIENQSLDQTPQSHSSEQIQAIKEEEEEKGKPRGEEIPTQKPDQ
Chain of D(1A) dopamine receptor (P21728 whole entry): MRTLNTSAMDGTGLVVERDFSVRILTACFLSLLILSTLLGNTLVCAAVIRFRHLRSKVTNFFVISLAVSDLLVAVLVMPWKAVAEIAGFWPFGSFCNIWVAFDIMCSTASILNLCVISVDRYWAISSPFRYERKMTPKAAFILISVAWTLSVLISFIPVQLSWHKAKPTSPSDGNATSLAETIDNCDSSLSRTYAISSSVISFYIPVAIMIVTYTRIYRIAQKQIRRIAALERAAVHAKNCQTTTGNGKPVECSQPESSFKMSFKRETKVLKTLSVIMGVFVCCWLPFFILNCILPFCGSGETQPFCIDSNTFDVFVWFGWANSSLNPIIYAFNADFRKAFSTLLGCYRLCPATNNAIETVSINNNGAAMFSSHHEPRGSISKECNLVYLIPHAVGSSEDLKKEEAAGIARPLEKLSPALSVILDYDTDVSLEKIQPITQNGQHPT
Chain of Voltage-gated inwardly rectifying potassium channel KCNH2 (Q12809 whole entry): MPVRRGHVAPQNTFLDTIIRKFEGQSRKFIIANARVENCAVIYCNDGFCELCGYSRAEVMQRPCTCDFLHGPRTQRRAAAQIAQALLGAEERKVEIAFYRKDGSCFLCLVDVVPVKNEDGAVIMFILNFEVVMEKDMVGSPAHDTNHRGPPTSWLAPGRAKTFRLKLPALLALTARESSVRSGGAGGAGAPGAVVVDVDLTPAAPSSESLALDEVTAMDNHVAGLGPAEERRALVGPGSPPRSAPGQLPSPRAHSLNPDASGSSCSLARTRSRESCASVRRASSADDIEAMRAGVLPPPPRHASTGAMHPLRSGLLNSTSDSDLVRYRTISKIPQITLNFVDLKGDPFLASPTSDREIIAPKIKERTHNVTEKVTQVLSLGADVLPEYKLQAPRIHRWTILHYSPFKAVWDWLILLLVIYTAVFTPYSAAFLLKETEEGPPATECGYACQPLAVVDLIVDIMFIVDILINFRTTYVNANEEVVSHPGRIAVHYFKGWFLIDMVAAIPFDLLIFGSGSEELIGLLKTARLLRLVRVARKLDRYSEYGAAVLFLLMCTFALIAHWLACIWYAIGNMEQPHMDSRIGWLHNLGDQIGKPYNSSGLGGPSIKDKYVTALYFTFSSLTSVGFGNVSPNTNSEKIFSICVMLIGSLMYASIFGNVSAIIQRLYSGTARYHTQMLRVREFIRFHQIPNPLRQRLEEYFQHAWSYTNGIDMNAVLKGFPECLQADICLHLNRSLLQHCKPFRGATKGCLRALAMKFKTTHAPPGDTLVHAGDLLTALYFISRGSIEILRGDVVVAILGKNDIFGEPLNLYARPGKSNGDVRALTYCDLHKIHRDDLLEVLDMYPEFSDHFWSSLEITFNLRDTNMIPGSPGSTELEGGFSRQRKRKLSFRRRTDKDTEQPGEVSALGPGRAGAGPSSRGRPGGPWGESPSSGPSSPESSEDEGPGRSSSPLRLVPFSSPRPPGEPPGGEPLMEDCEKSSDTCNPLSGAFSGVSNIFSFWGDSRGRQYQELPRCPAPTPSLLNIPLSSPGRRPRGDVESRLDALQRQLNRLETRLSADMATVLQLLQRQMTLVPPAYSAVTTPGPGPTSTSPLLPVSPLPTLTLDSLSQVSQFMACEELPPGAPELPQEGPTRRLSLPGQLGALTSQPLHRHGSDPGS

Row | Compound | AC50 [1] | AC50 [2] | AC50 [3] | AC50 [4] | AC50 [5] | AC50 [6] | AC50 [7] | AC50 [8] | AC50 [9] | AC50 [10] | AC50 [11] | AC50 [12] | AC50 [13] | AC50 [14] | AC50 [15] | AC50 [16] | AC50 [17] | AC50 [18]
1 | O=C(O)COc1nn(Cc2ccccc2)c2ccccc12 [BENDAZAC] | > 30 µM | > 30 µM | > 30 µM | > 30 µM | > 30 µM | > 30 µM | > 30 µM | > 30 µM | > 30 µM | > 30 µM | > 30 µM | > 30 µM | > 30 µM | > 3 µM | 260 µM | > 30 µM | > 30 µM | > 30 µM
2 | Cc1ccc([C@@H]2O[C@H](CO)[C@@H](O)[C@H](O)[C@H]2O)cc1Cc1ccc(-c2ccc(F)cc2)s1 [CANAGLIFLOZIN ANHYDROUS] | > 30 µM | > 30 µM | > 30 µM | > 30 µM | > 30 µM | > 30 µM | > 30 µM | > 30 µM | > 30 µM | > 30 µM | > 30 µM | > 30 µM | > 30 µM | > 30 µM | 38 µM | > 30 µM | 3.54 µM | > 30 µM
3 | O=C(O)CCCc1ccc(N(CCCl)CCCl)cc1 [CHLORAMBUCIL] | > 30 µM | > 30 µM | > 30 µM | > 30 µM | > 30 µM | > 30 µM | > 30 µM | > 30 µM | > 30 µM | > 30 µM | > 30 µM | > 30 µM | > 30 µM | > 30 µM | 270 µM | > 30 µM | > 30 µM | > 30 µM
4 | Cn1c(=O)c2c(ncn2CC(O)CO)n(C)c1=O (stereo unspecified) [DYPHYLLINE] | > 30 µM | > 30 µM | > 30 µM | > 30 µM | > 30 µM | > 30 µM | > 30 µM | > 30 µM | > 30 µM | > 30 µM | > 30 µM | > 30 µM | > 30 µM | > 30 µM | > 300 µM | > 30 µM | > 30 µM | > 30 µM
5 | CC(=O)Oc1ccccc1C(=O)Nc1ncc([N+](=O)[O-])s1 [NITAZOXANIDE] | 9.53 µM | > 30 µM | > 30 µM |  | > 30 µM | > 30 µM | > 30 µM | > 30 µM | > 30 µM | > 10 µM | > 30 µM | > 30 µM | > 30 µM | > 10 µM | 45 µM | > 30 µM | > 30 µM | > 30 µM
6 | CCCCCCCCCCC[C@@H](C[C@@H]1OC(=O)[C@H]1CCCCCC)OC(=O)[C@H](CC(C)C)NC=O [ORLISTAT] | > 30 µM | > 30 µM | > 30 µM | > 30 µM | > 30 µM | > 30 µM | > 30 µM | > 30 µM | > 30 µM |  | > 30 µM | > 30 µM | > 30 µM | > 30 µM | > 300 µM | > 30 µM | > 30 µM | > 30 µM
7 | CC(C)COc1ccc(CNC(=O)N(Cc2ccc(F)cc2)C2CCN(C)CC2)cc1 [PIMAVANSERIN] | > 30 µM | 4.6 µM | > 30 µM |  | > 30 µM | 5.78 µM | 2.66 µM | > 30 µM | 6.92 µM | > 30 µM | > 30 µM | > 30 µM | > 30 µM | > 3 µM | 65 µM | 28.7 µM | 12.8 µM | 16.7 µM
8 | NC(=O)c1ncn([C@@H]2O[C@H](CO)[C@@H](O)[C@H]2O)n1 [RIBAVIRIN] |  |  |  | > 30 µM |  |  |  |  |  |  |  |  |  |  | > 300 µM |  |  | 
9 | O=C(Nc1c(Cl)cncc1Cl)c1ccc(OC(F)F)c(OCC2CC2)c1 [ROFLUMILAST] |  |  |  | > 30 µM |  |  |  |  |  |  |  |  |  |  | 4 µM |  |  | 
10 | CCCN(CCc1cccs1)[C@H]1CCc2c(O)cccc2C1 [ROTIGOTINE] |  |  |  | 3.8 µM |  |  |  |  |  |  |  |  |  |  | 260 µM |  |  | 
11 | CC[C@H]1OC(=O)[C@H](C)[C@@H](O[C@H]2C[C@@](C)(OC)[C@@H](O)[C@H](C)O2)[C@H](C)[C@@H](O[C@@H]2O[C@H](C)C[C@H](N(C)C)[C@H]2O)[C@](C)(O)C[C@@H](C)/C(=N\OCOCCOC)[C@H](C)[C@@H](O)[C@]1(C)O [ROXITHROMYCIN] |  |  |  | > 30 µM |  |  |  |  |  |  |  |  |  |  | > 300 µM |  |  | 
12 | CC(C)N(CCCCOCC(=O)NS(C)(=O)=O)c1cnc(-c2ccccc2)c(-c2ccccc2)n1 [SELEXIPAG] |  |  |  | > 30 µM |  |  |  |  |  |  |  |  |  |  | 5.7 µM |  |  | 
13 | CC(=O)S[C@@H]1CC2=CC(=O)CC[C@]2(C)[C@H]2CC[C@@]3(C)[C@@H](CC[C@@]34CCC(=O)O4)[C@H]12 [SPIRONOLACTONE] |  |  |  | > 30 µM |  |  |  |  |  |  |  |  |  |  | 26 µM |  |  | 
14 | CCCCCCCCNC(C)C(O)c1ccc(SC(C)C)cc1 (stereo unspecified) [SULOCTIDIL] | 15.5 µM | 3.41 µM | > 30 µM | 0.43 µM | > 30 µM | 11.3 µM | 0.671 µM | > 30 µM | 1.39 µM | > 30 µM | 0.216 µM | > 30 µM | 20.9 µM |  | 64 µM | 27.4 µM | 2.21 µM | 7.07 µM
15 | Cn1c(=O)c2[nH]cnc2n(C)c1=O [THEOPHYLLINE] | > 30 µM | > 30 µM |  | > 30 µM | > 30 µM | > 30 µM | > 30 µM | > 30 µM | > 30 µM | > 30 µM | > 30 µM | > 30 µM |  | > 30 µM | > 300 µM | > 30 µM | > 30 µM | > 30 µM
16 | NCCc1ccc(O)cc1 [TYRAMINE] | > 3 µM | > 30 µM | > 30 µM | > 30 µM | > 30 µM |  |  | > 30 µM | 22.2 µM | > 30 µM | 7.88 µM | > 30 µM | > 30 µM | > 30 µM | > 300 µM | > 30 µM | > 30 µM | > 30 µM
17 | Cc1cc(CC(=O)O)n(C)c1C(=O)c1ccc(Cl)cc1 [ZOMEPIRAC] |  |  |  | > 30 µM |  |  |  |  |  |  |  |  |  |  | 72 µM |  |  | 
